Reference: PMC6683083, “Lupin Peptide T9 (GQEQSHQDEGVIVR) Modulates the Mutant PCSK9^D374Y Pathway: in vitro Characterization of its Dual Hypocholesterolemic Behavior” (Nutrients, 2019)
“Also recorded” adds a separate entry of the source.

Key:
HMGCoAR = target: T1, HMGCoAR (Homo sapiens, UniProt P04035); assay: In vitro HMGCoAR activity assay (Sigma kit); format: biochemical; conditions: 10^−5 to 10^−3 M; 37 °C; NADPH oxidation, absorbance at 340 nm, 0 and 10 min; means ± SD
T1 construct: purchased Sigma (Sigma-Aldrich, St. Louis, MO, USA)
T1 sequence (P04035 426-888 limits assumed): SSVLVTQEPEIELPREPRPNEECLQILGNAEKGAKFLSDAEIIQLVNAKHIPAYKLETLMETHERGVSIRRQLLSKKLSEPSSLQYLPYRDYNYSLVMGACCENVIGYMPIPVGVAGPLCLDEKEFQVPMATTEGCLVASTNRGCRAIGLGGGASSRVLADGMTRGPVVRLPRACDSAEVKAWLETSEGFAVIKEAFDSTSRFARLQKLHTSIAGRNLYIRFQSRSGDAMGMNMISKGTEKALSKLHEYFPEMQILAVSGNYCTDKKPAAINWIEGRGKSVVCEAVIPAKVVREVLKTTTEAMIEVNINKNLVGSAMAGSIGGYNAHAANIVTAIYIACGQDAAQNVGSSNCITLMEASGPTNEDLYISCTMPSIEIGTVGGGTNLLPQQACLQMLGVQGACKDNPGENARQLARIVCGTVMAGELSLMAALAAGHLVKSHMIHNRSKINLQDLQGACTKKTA
Protocol: The assay buffer, NADPH, substrate solution, and HMGCoAR were provided in the HMGCoAR Assay Kit (Sigma). The experiments were carried out as previously described. See Supplementary Materials for further details.
In vitro experiments were performed in order to confirm the in silico study according to which T9 was a potential inhibitor of the HMGCoAR activity. Peptide concentrations ranging from 10^−5 to 10^−3 M were tested.
Brief description of material and methods
Dulbecco’s modified Eagle’s medium (DMEM), stable L-glutamine, fetal bovine serum (FBS), phosphate buffered saline (PBS), penicillin/streptomycin, chemiluminescent reagent, and 96-well plates were purchased from Euroclone (Milan, Italy). […]
The assay buffer, NADPH, substrate solution, and HMGCoAR were provided in the HMGCoAR Assay Kit (Sigma). […] The absorbance at time 0 and 10 min were recorded. The HMGCoAR-dependent oxidation of NADPH and the inhibition properties of lupin peptides were measured by the absorbance reduction at 340 nm read by a microplate reader […]
Transfected HepG2 cells (1.5 × 10^5 cells/well) were treated with 100 μM T9 for 24 h. […] After centrifugation at 16,060 g for 15 min at 4 °C, the supernatant was recovered and total proteins were quantified by the Bradford method. […]

intestinal peptidases = conditions: ref [13]; cited from earlier work
From the text: (§1) GQEQSHQDEGVIVR (T9) is a peptide, deriving from the hydrolysis of β-conglutin with trypsin, showing a pI of 4.3, a hydrophobicity value of 25.97 Kcal mol^−1, and a net charge of −2 at pH 7.0. Its 14-aminoacids sequence comprises a polar negatively charged N-terminal, containing a glutamate residue, and a nonpolar positively charged C-terminal, containing an arginine residue. […] Two previous in silico studies have predicted the potential ...

[1] = system: human intestinal Caco-2 cells; conditions: human intestinal Caco-2 cells / enterocytes; ref [13]; cited from earlier work
From the text: as §1, with “A previous study has shown that T9 impairs the protein–protein interaction between mutant D374Y Proprotein Convertase Subtilisin/Kexin 9 (PCSK9^D374Y) and the low-density lipoprotein receptor (LDLR), thus exerting a hypocholesterolemic effect. […] The present ... || GQEQSHQDEGVIVR” for “GQEQSHQDEGVIVR”

CC[C@H](C)[C@H](NC(=O)[C@@H](NC(=O)CNC(=O)[C@H](CCC(=O)O)NC(=O)[C@H](CC(=O)O)NC(=O)[C@H](CCC(N)=O)NC(=O)[C@H](Cc1cnc[nH]1)NC(=O)[C@H](CO)NC(=O)[C@H](CCC(N)=O)NC(=O)[C@H](CCC(=O)O)NC(=O)[C@H](CCC(N)=O)NC(=O)CN)C(C)C)C(=O)N[C@H](C(=O)N[C@@H](CCCNC(=N)N)C(=O)O)C(C)C [T9]
IC50 (HMGCoAR): 99.5 ± 0.56 µM
stability to metabolic degradation operated by intestinal peptidases (in words) (intestinal peptidases): stable to the metabolic degradation operated by intestinal peptidases
intestinal absorption (in words) [1]: absorbed in human intestinal Caco-2 cells; also recorded: absorbed by enterocytes
